According to patent US20050187196A1, “Treatment of attention disorders” (Saegis Pharmaceuticals, Inc., priority 2004, published 2005):

Columns and labels:
coloboma mice (Cm/+) = settings: open field test; d-amphetamine at low doses; cited from earlier work
wildtype mice = settings: d-amphetamine at the same dose as in coloboma mice; cited from earlier work
[1] = system: wildtype mice (C3H/HeSNJ); assay: Open field test, wildtype mice; type: in vivo, mouse; settings: for locomotor activity of wildtype controls: final 30 min
Text: (§1) Male and female mice heterozygous for the coloboma spontaneous mutation (C3H/HeSnJ-Cm/J) and wild type (C3H/HeSNJ) mice from Jackson Laboratories (Bar Harbor, Me.) were used in this study. Upon receipt, mice were assigned unique identification numbers (tail marked) and were housed in polycarbonate cages with filter tops. All mice were acclimated to the colony room for at least two weeks prior to testing. During the period of acclimation, mice were examined on a regular basis, handled, and weighed to assure adequate health and suitability. Mice were maintained on a 12/12 light/dark cycle. Chow and water were provided ad libitum for the duration of the study. In each test, animals were randomly assigned across treatment groups and balanced by age and by gender. Animals were not disturbed between test days.
(§2) The open field test (OF) is used to assess both anxiety-like behavior and motor activity. The open field chambers are Plexiglas square chambers (27.3×27.3×20.3 cm; Med Associates Inc., St Albans, Vt.) surrounded by infrared photobeam sources (16×16×16). The enclosure was configured to split the open field into a center and periphery zone and the photocell beams were set to measure activity in the center and in the periphery of the OF chambers. Animals having higher levels of anxiety or lower levels of activity tend to stay in the corners of the OF enclosures. On the other hand, mice that have high levels of activity and low levels of anxiety tend to spend more time in the center of the enclosure. Distance traveled is measured from consecutive beam breaks. Measures of peripheral or central distance covered during locomotion were used as an index of activity.
ABPA (0.3, 3 and 30 mg/kg) and atomoxetine (0.1 mg/kg) were dissolved in saline and administered i.p. at the injection volume of 10 ml/kg. Mice were pretreated with saline, ABPA, or atomoxetine for 30 min, after which their behavior was recorded in the OF chambers for a 60-min test session. At the end of each open field test session the OF chambers were thoroughly cleaned with Clorox wipes. Mice were returned to their home cage after testing and then to the colony room. Mice were retested every week. […] Data were analyzed by analysis of variance (ANOVA), followed by Fisher PLSD post-hoc analysis when appropriate. […]
Since the effects of all drugs reached a stable response by 20-30 min following the start of the experiment, the data was analyzed in 2 time periods: 1) total 60 min test session and 2) the last 30 min of the test session. The quantified data over the final 30 min time period are presented. […] As measured by total distance traveled, the coloboma mice had roughly 6- to 10-fold higher saline-induced activity compared to the wildtype mice (11,246±3213 centimeters vs. 1035±252 centimeters, FIGS. 3A and 3B).

[2] = system: coloboma mutant mice (Cm/+); assay: Open field test, coloboma mutant mice; type: in vivo, mouse; settings: parallel experiments
[3] = system: striatal dopamine release; settings: administration in the substantia nigra pars reticulata (SNr); cited from earlier work
[4] = system: coloboma mutant mice (Cm/+); assay: Open field test, coloboma mutant mice; type: in vivo, mouse; settings: for frequency of zone crossings / total distance traveled / locomotor activity: final 30 min
Text: as §1, §2
ABPA (0.3, 3 and 30 mg/kg) and atomoxetine (0.1 mg/kg) were dissolved in saline and administered i.p. at the injection volume of 10 ml/kg. Mice were pretreated with saline, ABPA, or atomoxetine for 30 min, after which their behavior was recorded in the OF chambers for a 60-min test session. At the end of each open field test session the OF chambers were thoroughly cleaned with Clorox wipes. Mice were returned to their home cage after testing and then to the colony room. Mice were retested every week. The washout period between tests ranged from 3-7 days. Data were analyzed by analysis of variance (ANOVA), followed by Fisher PLSD post-hoc analysis when appropriate. An effect was considered significant if p<0.05. Outliers that fell above and below two standard deviations away from the mean were removed from the final analysis.
Since the effects of all drugs reached a stable response by 20-30 min following the start of the experiment, the data was analyzed in 2 time periods: 1) total 60 min test session and 2) the last 30 min of the test session. The quantified data over the final 30 min time period are presented. Repeated measure ANOVA found a significant genotype and drug interaction over both time periods. As measured by total distance traveled, the coloboma mice had roughly 6- to 10-fold higher saline-induced activity compared to the wildtype mice (11,246±3213 centimeters vs. 1035±252 centimeters, FIGS. 3A and 3B).

[5] = system: dopamine (DA) neurons in the ventral tegmental area (VTA); settings: systemic administration; cited from earlier work
[6] = system: patients diagnosed with adult ADHD; settings: cited from earlier work
GABAC receptor = settings: reported in U.S. Pat. No. 6,632,806; cited from earlier work
[7] = system: patients with mild cognitive impairment (MCI); assay: Rapid Visual Information Processing (RVIP) test (CANTAB), clinical trial; type: in vivo, human; settings: 600 mg tid
Experimental: A clinical trial was initiated to determine the effect of the GABAB receptor antagonist, ABPA, on specific tests of cognition in non-demented older individuals with diminished memory function who met prospective criteria for mild cognitive impairment (MCI). Patients aged 60-85 with MCI enrolled in this double-blind, randomized trial. Patients were randomized to ABPA (600 mg tid) or placebo for 8 weeks. Verbal, paper and computer tests of memory and cognition were made by trained assessors at baseline (before administration of ABPA or placebo) and after 2, 5, and 8 weeks of treatment. Among these were selected tests from the Cambridge Neuropsychological Test Automated Battery (CANTAB), a computerized battery of tests for neuropsychological evaluation (Robbins et al., 1994, “Cambridge Neuropsychological Test Automated Battery (CANTAB): A factor analytic study of a large sample of normal elderly volunteers,” Dementia 5:266-281). […]
The Rapid Visual Information Processing (RVIP) test is a test of sustained attention with a small working memory component. […] Responses were recorded with a button press. Reaction time, or mean hit latency, for all correct responses was recorded, as were additional signal detection measures (e.g., total hits, total misses and total false alarms). […]

patients with MCI = assay: CANTAB tests of psychomotor speed, clinical trials; type: in vivo, human
Experimental: (§3) A clinical trial was initiated to determine the effect of the GABAB receptor antagonist, ABPA, on specific tests of cognition in non-demented older individuals with diminished memory function who met prospective criteria for mild cognitive impairment (MCI). Patients aged 60-85 with MCI enrolled in this double-blind, randomized trial. Patients were randomized to ABPA (600 mg tid) or placebo for 8 weeks. Verbal, paper and computer tests of memory and cognition were made by trained assessors at baseline (before administration of ABPA or placebo) and after 2, 5, and 8 weeks of treatment. Among these were selected tests from the Cambridge Neuropsychological Test Automated Battery (CANTAB), a computerized battery of tests for neuropsychological evaluation (Robbins et al., 1994, “Cambridge Neuropsychological Test Automated Battery (CANTAB): A factor analytic study of a large sample of normal elderly volunteers,” Dementia 5:266-281). Tests assessing memory, attention and psychomotor speed were administered to the patient by a neuropsychologist or equivalent via a computer with a touch screen, thus testing the individual's cognitive performance rather than ability to use a computer. CANTAB tests have been proven to be highly sensitive and specific in differentiating patients with a number of neurological conditions from each other and from normal controls.

[8] = system: patients with mild cognitive impairment (MCI); assay: Five Choice Reaction Time test (CANTAB), clinical trial; type: in vivo, human; settings: 600 mg tid
Experimental: as §3
110 patients were randomized; 75 were administered ABPA and 35 were administered placebo (56% men; mean age: 74 years).
The Five Choice Reaction Time test measures the speed of response to the appearance of a visual stimulus. Patients rested their hand on a press-pad placed on the desk directly in front of the computer screen, holding down the press-pad until a brief yellow flash appeared in 1 of the 5 circles located at various positions around the screen. […] The computer recorded 2 measures of response speed: reaction time, which was the time taken to lift the hand from the press-pad, and movement time, which was the latency from press-pad release to the time that the screen was touched. […]

In the case of `C[C@H](N)Cc1ccccc1` [d-amphetamine, dextro-amphetamine], the “activity levels / hyperactivity of coloboma mice” value (from here on “activity levels / hyperactivity”) (coloboma mice (Cm/+)) is given as “reduced”, the “activity levels of wildtype mice” value (wildtype mice) is given as “profound increases in activity” and the “activity in control (wildtype) mice” value ([1]; parallel experiments) is given as “did increase activity”. For the same compound, the “rearing frequency in control (wildtype) mice” value ([1]; parallel experiments) was “no effect on rearing frequency”, the “activity in coloboma mice” value ([2]; 0.5 mg/kg) was “did not reduce activity” and the “activity in coloboma mice” value ([2]; 1 mg/kg) was “did not reduce activity”. For the same compound, the “activity in coloboma mice” value ([2]; 4 mg/kg) was “did not reduce activity” and the frequency of rearing ([2]; 4 mg/kg) was “did reduce the frequency of rearing”.

For `NCC(CC(=O)O)c1ccc(Cl)cc1` (stereo not drawn) [baclofen], the “dopamine release in the striatum” value [3] is listed as “decrease in striatal dopamine”.

For `CNCC[C@@H](Oc1ccccc1C)c1ccccc1` [atomoxetine], the “frequency of zone crossings” value ([4]; 0.1 mg/kg i.p., p=0.06) is given as “strong trend to decreasing the zone crossings”, the total distance traveled ([4]; 0.1 mg/kg i.p., final 30 min of 60-min session, vs saline-treated Cm mutants, p=0.03) is given as “significantly decreased total distance traveled” and the “activity levels / hyperactivity” value (coloboma mice (Cm/+)) is given as “reduces hyperactivity”. For the same compound, the “activity levels of wildtype mice” value (wildtype mice) was “without affecting activity levels”.

In the case of `CCOC(OCC)P(=O)(O)CCCN` [CGP 35348], the “burst firing of VTA dopamine neurons” value [5] is given as “long-lasting increase in burst firing”.

For `NCCCCC(=O)O` [5-AVA], the “dopamine release in the striatum” value [3] is listed as “increase dopamine release in the striatum”.

In the case of `COC(=O)C(c1ccccc1)C1CCCCN1` (stereo not drawn) [methylphenidate], the “performance in the RVIP test” value [6] is given as “improve performance in the RVIP test”, the “activity levels / hyperactivity” value (coloboma mice (Cm/+)) is given as “failed to normalize the hyperactivity” and the “activity levels of wildtype mice” value (wildtype mice) is given as “increasing locomotor activity”.

For `CCCCP(=O)(O)CCCN` [ABPA, 3-aminopropyl-(n-butyl)-phosphinic acid], the “frequency of zone crossings” value ([4]; 0.3 mg/kg i.p., p=0.04, to within range of saline-treated wildtype) was “significant decrease in the frequency of zone crossings”, the “total distance traveled / locomotor activity” value ([4]; 0.3 mg/kg i.p., p=0.07) was “strong trend to decreasing the activity” and the “total distance traveled / locomotor activity” value ([4]; 3 mg/kg i.p., p=0.03) was “significantly decreased locomotor activity levels”. For the same compound, the “frequency of zone crossings” value ([4]; 3 mg/kg i.p., p=0.06) was “strong trend to decreasing the zone crossings”, the “total distance traveled / locomotor activity” value ([4]; 30 mg/kg i.p., p=0.03) was “significantly decreased locomotor activity levels” and the “frequency of zone crossings” value ([4]; 30 mg/kg i.p., p=0.04, to within range of saline-treated wildtype) was “significant decrease in the frequency of zone crossings”. The “locomotor activity of wildtype controls” value ([1]; 3 mg/kg i.p.) was “no effect on the activity of wildtype controls”, the “locomotor activity of wildtype controls” value ([1]; 30 mg/kg i.p.) was “no effect on the activity of wildtype controls” and the GABAC receptor antagonism (GABAC receptor) was “antagonize”. For the same compound, the “mean hit latency, mean change from Baseline” value ([7]; Week 5, p=0.03 vs placebo (+15.0)) was -37.3 ms, the “mean hit latency, mean change from Baseline” value ([7]; Week 8, p=0.02 vs placebo (−5.9)) was -61.6 ms and the psychomotor speed (patients with MCI) was “significant improvements in psychomotor speed”. For the same compound, the “mean reaction time, change compared to baseline” value ([8]; 8 weeks, p=0.002 vs placebo (+9.4)) was −19.7 milliseconds, the “reaction time vs baseline” value ([8]; Week 2, p=0.074 vs placebo) was “Decreased reaction time” and the “reaction time vs baseline” value ([8]; Week 5, p=0.070 vs placebo) was “Decreased reaction time”.
